One series relates to 10-mer complementary DNA. The series is described as follows: Tm between PNA derivatives and 10-mer complementary DNA (N- or C-terminal). It counts as binding. Particulars: uncorrected. The method in brief:
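Tm read by UV at 260 nm for duplexes formed by annealing (90 °C for a minute, slow cooling to ambient) of equimolar 4 μM PNA and complementary 10-mer DNA targeting N- or C-terminal, in 10 mM sodium phosphate, 100 mM NaCl, pH 7.16.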

Series [1] relates to full-length TYR mRNA. The series is described as follows: TYR nested qPCR in human primary epidermal melanocytes. It counts as cell-based. Particulars: 1 zM to 10 aM, 5 hours. The procedure: [Cell Culture & ASO Treatment] Primary epidermal melanocytes (Cat. Number PCS-200-013, ATCC) cells were maintained in Dermal Cell Basal Medium (Cat Number PCS-200-030, ATCC) supplemented with Adult Melanocyte Growth Kit Component (Cat. Number PCS-200-042, ATCC). Melanocytes grown in 60 mm culture dish containing 5 mL culture medium were treated with “TYR-ASO 1” at 0 zM (negative control), 1 zM, 100 zM, or 10 aM. (3 culture dishes per concentration) [RNA Extraction & cDNA Synthesis by One-step PCR] Following an incubation with “TYR-ASO 1” for 5 hours, total RNA was extracted using “RNeasy Mini Kit” (Cat. Number 74106, Qiagen) according to the manufacturer's instructions. […] NO: 147); and TYR-exon 5_reverse: (5'→3') […] [Nested PCR Amplification] […] NO: 149); and TYR-exon 3n_reverse: (5'→3') […] NO: 150)] against a Taqman probe [(5'→3') 5,6-[…] NO: 151)].
A general note: In qPCR the cycle at which signal appears reflects the starting amount.

The test system of series [2] is SNAP25 protein. Description: SNAP25 IHC in skin of mice after topical administration. It counts as in vivo, C57BL/6 mice. The conditions noted are these: topical 1, 10 or 100 fM solution, twice per day Days 0 to 4. On the procedure:
“SNAP-ASO 1” is a 16-mer ASO fully complementary to the 3′ splice site spanning the junction of intron 6 and exon 7 in the mouse SNAP25 pre-mRNA read out from the mouse genomic DNA [accessed from NCBI Reference Sequence: NC_000068]. “SNAP-ASO 1” was evaluated for its ability to inhibit the expression of SNAP25 protein in the skin upon topical administration as follows.
[Hair Cut and Grouping] In Day 0, 8 female C57BL/6 mice (5 weeks old) were anesthetized with zoletil/rompun, and the hair in the back (ca 3 cm×4 cm) was cut with a clipper. The mice were randomly assigned into 4 groups, i.e., no ASO treatment group (negative control) and 3 treatment groups of 1 fM, 10 fM and 100 fM “SNAP-ASO 1”. (2 animals per group)
[Topical Administration] Topical solutions were prepared by serially diluting an aqueous stock solution of “SNAP-ASO 1” in 30% (v/v) aqueous ethanol supplemented with 3% (v/v) glycerin to 0, 1, 10 and 100 fM “SNAP-ASO 1”. […]
[SNAP25 IHC] Skin samples were cryo-sectioned and immunostained in series with a primary anti-SNAP25 antibody (Cat. Number ab41455, Abcam) at 1:200 dilution, with a secondary anti-IgG (Cat Number BA-1100, Vector) at 1:200 dilution, and then with Dylight 594-streptavidin (Cat Number SA-5594, Vector, CA, USA) at 1:200 dilution for red fluorescence tagging. […]

The test system of series [3] is SNAP25 protein. The series is described as follows: SNAP25 western blot in PC12 cells. It counts as cell-based, rat. The conditions noted are these: 100 or 1,000 zM, 48 hours or 72 hours. The procedure: “SNAP-ASO 3” was evaluated for its ability to inhibit the expression of the SNAP25 protein in PC12 cells as follows.
PC12 cells were grown in 60 mm culture dish containing 5 mL culture medium, and treated with “SNAP-ASO 3” at 0 zM (negative control), 1 zM, 10 zM, 30 zM, 100 zM, 300 zM, 1 aM, 3 aM or 10 aM for 48 hours. There were 4 culture dishes of the negative control to compensate for potential technical artifacts during the western blot analysis.
[Cell Lysis] Then the cells were subjected to lysis on ice with 200 μL 1×RIPA buffer (Cat. Number 9806, Cell Signaling Tech) supplemented with 1% SDS and 1× proteinase inhibitors cocktail (cOmplete Mini, Roche). The lysates were collected in 1.5 mL e-tube, mixed with 100 μL 5× sample buffer, and boiled for 5 min.
[Western Blot] The lysates were subjected to electrophoretic separation on a 4-15% TGX-PAGE gradient gel (Cat. Number 456-1086, Bio-Rad) and then transferred onto a 0.45 μm PVDF membrane. The membrane was probed with an anti-SNAP25 antibody (Cat. Number S9684, Sigma) and an anti-β-actin antibody (Cat. Number A3845, Sigma).
“SNAP-ASO 1” was evaluated for its ability to inhibit the SNAP25 protein expression in PC12 cells as described in “SNAP25 Example 4”, unless noted otherwise. PC12 cells were treated with “SNAP-ASO 1” at 0 (negative control), 100 or 1,000 zM either for 48 hours or for 72 hours. […]

The subject of another series is full-length SNAP25 mRNA. The series is described as follows: SNAP25 nested qPCR in PC12 cells. It counts as cell-based, rat. On the procedure:
[Cell Culture & ASO Treatment] PC12 cells grown in 60 mm culture dish containing 5 mL culture medium were treated with “SNAP-ASO 3” at 0 (negative control), 10, 100 or 1,000 zM. (2 culture dishes per ASO concentration) [RNA Extraction & cDNA Synthesis by One-step RT-PCR] Following an incubation with “SNAP-ASO 3” for 42 hours, the cells were treated 100 μg/mL cycloheximide for another 6 hours to freeze the ribosomal translation. Then total RNA was extracted from cells using “Universal RNA Extraction Kit” (Cat. Number 9767, Takara) according to the manufacturer's instructions. […] NO: 130); and SNAP-exon 14_reverse: (5'→3') […] [Nested qPCR Amplification] […] NO: 132); and SNAP-exon 8q_reverse: (5'→3') […] The qPCR reaction was followed with a Taqman probe of [(5'→3') 5,6-[…] NO: 134)] targeting the junction of exon 7 and exon 8 in order to quantify the full-length SNAP25 mRNA.

The next series deals with TYR protein. Description: TYR western blot in B16F10 cells. Particulars: 10 zM to 10 aM, 24 hours. It counts as cell-based, mouse. On the procedure:
“TYR-ASO 4” was evaluated for its ability to inhibit the expression of TYR protein in B16F10 cells as described below.
B16F10 cells grown in 60 mm culture dish containing 5 mL culture medium were treated with “TYR-ASO 4” for 24 hours at 0 zM (negative control), 10 zM, 100 zM, 1 aM or 10 aM, and subjected to lysis with 200 μL 1× cell lysis buffer (Cat. No. 9803, Cell Signaling Tech) supplemented with 1× protease inhibitors cocktail (Cat. No. P8340, Sigma). 200 μL of each lysate was mixed with 100 μL 5× sample buffer, and boiled at 100° C. for 5 min. 20 μL of each lysate was subjected to electrophoretic separation on a 4-15% gradient TGX gel (Cat No. 456-1086, Bio-Rad), and protein transfer onto a 0.45 μm PVDF membrane. The membrane was probed with an anti-TYR antibody (Cat. No. 9319, Cell Signaling Tech) and an anti-3-actin antibody (Cat. No. a3845, Sigma).
On the technique in general: A western blot detects proteins with antibodies after separation by electrophoresis.

The next series relates to mouse TYR pre-mRNA. Description: TYR nested PCR for exon skipping in B16F10 cells. The format is cell-based. Particulars: 1 to 1,000 aM, 5 hours. The procedure: “TYR-ASO 4” was evaluated for its ability to induce the skipping of the mouse TYR exon 2 in B16F10 melanoma cells as follows. “TYR-ASO 4” may serve as a good surrogate compound for “TYR-ASO 1” which is fully complementary to the human TYR pre-mRNA. [Cell Culture & ASO Treatment] B16F10 mouse melanoma cells (Cat. Number CRL-6475, ATCC) were maintained in DMEM (Dulbecco's modified Eagle's essential minimum medium) supplemented with 10% FBS, 1% streptomycin/penicillin, and 0.01 mg/ml bovine insulin. B16F10 cells grown in 60 mm culture dish containing 5 mL DMEM were incubated for 5 hours with “TYR-ASO 4” at 0 (negative control), 1, 10, 100 or 1000 aM. [RNA Extraction & cDNA Synthesis by One-step PCR] Total RNA was extracted using “Universal RNA Extraction Kit” (Cat. Number 9767, Takara) according to the manufacturer's instructions. […] NO: 142); and TYR-exon 4_reverse: (5'→3') […] [Nested PCR Amplification] […] NO: 144); and TYR-exon 4n_reverse: (5'→3') […] [Identification of Exon Skipping Products] The PCR products were subjected to electrophoretic separation on a 2% agarose gel. The bands of target size were collected and analyzed by Sanger Sequencing.

For series [4], the system named is full-length TYR mRNA. Description: TYR nested qPCR in B16F10 cells. It counts as cell-based, mouse. Particulars: 1 to 1,000 aM. On the procedure:
[Cell Culture & ASO Treatment] B16F10 cells grown in 60 mm culture dish containing 5 mL culture medium were treated with “TYR-ASO 4” at 0 (negative control), 1, 10, 100 or 1000 aM. (2 culture dishes per dose)
[RNA Extraction & cDNA Synthesis by One-step PCR] Total RNA was extracted and subjected to cDNA synthesis as described in “TYR Example 1”.
[Nested qPCR Amplification]
[Statistical Analysis] The nested qPCR experiment was repeated independently four times, and individual mRNA levels from each experiment were normalized against the mRNA level without ASO treatment. The mRNA levels obtained from all the 4 separate experiments were pooled for statistical analysis by student's t-test. Thus the number of RNA samples is 8 per ASO concentration.

Series [5] deals with melanogenesis in B16F10 cells. The series is described as follows: Melanin content (melanogenesis) in B16F10 cells. The format is cell-based, mouse. Particulars: 1 to 1,000 aM, 24 hours. The procedure: “TYR-ASO 4” was evaluated for its ability to inhibit the melanogenesis in B16F10 cells as described below.
B16F10 cells grown in 60 mm culture dish containing 5 mL culture medium were treated either with “TYR-ASO 4” at 0 (negative control) or 1 to 1,000 aM, or with 10 or 100 μg/mL arbutin as a positive control. (2 culture dishes per dose) 24 hours later, the cells were subjected to lysis with 200 μL 1N NaOH. Each lysate was collected in 1.5 mL e-tube, and kept overnight at room temperature. The melanin content in each lysate was determined by absorbance at 475 nm on an ELISA reader. The experiment was repeated four times using cells at different passage. The four sets of the melanin content data were pooled for statistical analysis by student's t-test against the melanin content without treatment (negative control).

[C(1O2)] = modified PNA monomer acting as cytosine, C(pOq) type, 1O2; [A(6)] = modified PNA monomer acting as adenine, A(p) type, p=6; [G(6)] = modified PNA monomer acting as guanine, G(p) type, p=6; {Fethoc} = N-terminal Fethoc cap; {NH2} = C-terminal amide

In the case of “Fethoc-CA(5)G-ACA(5)-ATC(1O2)-TG(6)T-A(5)-NH2 (antisense CAGACAATCTGTA; chemistry not fully specified) [TYR-ASO 1]”, in the series on 10-mer complementary DNA, the “Tm Value, 10-mer DNA against C-Terminal” value stood at 73.0 °C and the “Tm Value, 10-mer DNA against N-Terminal” value stood at 78.0 °C. Moreover, the “decrease of full-length TYR mRNA level (qPCR)” value with full-length TYR mRNA [1] is recorded as roughly 30%.
As for “Fethoc-A(6)TT-TG(6)T-TA(6)C-CC(1O2)T-GG(6)G-A(6)-NH2 (ATTTGTTACCCTGGGA; all peptide nucleic acid (PNA), [A(6)] at 1, 8, 16, [G(6)] at 5, 14, [C(1O2)] at 11, 5' {Fethoc}, 3' {NH2}; peptide nucleic acid written N to C) [SNAP-ASO 1]”, in the series on SNAP25 protein [2], the “SNAP25 protein expression in the muscle layer of skin (IHC)” value is given as “gradually decreased as the dose was increased”. Further, in the series with SNAP25 protein [3], the “expression of the SNAP25 protein (western blot)” value is “considerably inhibited”. The “decrease of full-length SNAP25 mRNA level (qPCR)” value in the series with full-length SNAP25 mRNA (PC12 cells, 10 zM) is on record as roughly 50%; in the series with full-length SNAP25 mRNA (PC12 cells, 100 zM), 40%; in the series with full-length SNAP25 mRNA (PC12 cells, 1,000 zM), 70%.
Regarding “Fethoc-CA(5)A-A(5)TG-A(5)TC(1O2)-TG(6)T-G-NH2 (antisense CAAATGATCTGTG; chemistry not fully specified) [TYR-ASO 4]”, the “TYR protein level (western blot)” value with TYR protein is listed as “considerably higher in the lysates of the negative control”. Besides, in the series with mouse TYR pre-mRNA, the “TYR exon skipping by nested PCR” value is “yielded essentially only the splice variant TYR mRNA lacking exons 2 and 3”. For the same substance, the “decrease of full-length TYR mRNA level (qPCR)” value in the series on full-length TYR mRNA [4] is given as roughly 40%. Further, in the series on 10-mer complementary DNA, the “Tm Value, 10-mer DNA against C-Terminal” value is 72.0 °C and the “Tm Value, 10-mer DNA against N-Terminal” value amounted to 72.0 °C. In series [5], the “decrease of melanin content” value is recorded as roughly 15%.

The record behind these values is patent US12624068B2, “Exon skipping by peptide nucleic acid derivatives” (OliPass Corporation, priority 2016, dated 2026).
